Here are results for five substances from patent publication US7534762B2, “Polypeptides having antimicrobial activity and polynucleotides encoding same” (Novozymes A/S, priority 2005, dated 2009).

Holding throughout (assay): Radial diffusion assay
Holding throughout (assay type): cell-based

For assay [1], the system named is Pseudomonas boreopolis (ATCC 15452). Particulars: TCA precipitated culture supernatant, 100 x concentrated; 10 units = 1 mm diameter clear zone around the 3 mm sample well. As for the experimental part:
(§1) The supernatants described above in Example 4 were analyzed in a radial diffusion assay following a previously published protocol for detection of antimicrobial activity (Lehrer et al., (1991) Ultra sensitive assays for endogenous antimicrobial polypeptides J Immunol Methods 137: 167-173). Target bacteria (10^6 colony forming units (CFU)) were added to 10 ml of underlay agarose (1% low electro-endosmosis agarose, 0.03% Trypticase soy broth, 10 mM sodium phosphate, pH 7.4, 37 degrees Celsius). Suspension was solidified on an INTEGRID Petri Dish (Becton Dickinson Labware, NJ). A 3 mm Gel Puncher was used to make holes in the underlay agarose (Amersham Pharmacia Biotech, Sweden). Samples were added to the holes and incubated at 37 degrees Celsius, 3 hours. An overlay was poured on top and the plate was incubated overnight (LB media, 7.5% Agar). Antimicrobial activity was seen as bacterial clearing zones around the wells. Living cells was counterstained by adding 10 ml, 0.2 mM MTT (3-(4,5-Dimethylthiazol-2-yl)-2,5-diphenyltetrazolium bromide Thiazolyl blue). All standard protocols have been described elsewhere (Sambrook, Fritsch, and Maniatis, 1989). An electronic picture is taken. The bacterial growth inhibition is seen as clearing zones, which are measured to the nearest 0.1 mm and subtracted the diameter of the hole. The results are shown as zones of inhibition of native samples (Table 3) and concentrated samples (Table 4) against a range of test strains: • A: Staphylococcus simulans (ATCC 11631) • B: Staphylococcus carnosus (ATCC 51365) • C: Streptococcus hyointestinalis (ATCC 49169) • D: Bacillus subtilis (ATCC 23857) • E: Enterococcus saccharolyticus (ATCC 43076) • F: Escherichia coli (ATCC 10536) • G: Acinetobacter anitratus (ATCC 17903) • H: Erwinia chrysanthemi (ATCC 11663) • J: Pseudomonas boreopolis (ATCC 15452)
(§2) Concentration of samples was performed by precipitation of 45 ml culture supernatant with 2.5 ml 100% TCA and resuspension of the pelleted precipitate in 450 μl resuspension buffer (100 mM Tris pH 8, 100 mM NaCl).

Assay [2] concerns Erwinia chrysanthemi (ATCC 11663). Particulars: TCA precipitated culture supernatant, 100 x concentrated; 10 units = 1 mm diameter clear zone around the 3 mm sample well. As for the experimental part: as §1, §2
The test system of assay [3] is Enterococcus saccharolyticus (ATCC 43076). Particulars: 10 units = 1 mm diameter clear zone around the 3 mm sample well. As to the method: as §1, §2
In assay [4] the test system is Staphylococcus carnosus (ATCC 51365). Particulars: 10 units = 1 mm diameter clear zone around the 3 mm sample well. As to the method: as §1, §2
The subject of assay [5] is Escherichia coli (ATCC 10536). Particulars: TCA precipitated culture supernatant, 100 x concentrated; 10 units = 1 mm diameter clear zone around the 3 mm sample well. As to the method:
as §1, §2

Assay [6] relates to Bacillus subtilis (ATCC 23857). The settings on record: 10 units = 1 mm diameter clear zone around the 3 mm sample well. As to the method:
as §1, §2

For assay [7], the system named is Staphylococcus simulans (ATCC 11631). The settings on record: TCA precipitated culture supernatant, 100 x concentrated; 10 units = 1 mm diameter clear zone around the 3 mm sample well. As to the method: as §1, §2
The subject of assay [8] is Streptococcus hyointestinalis (ATCC 49169). The settings on record: 10 units = 1 mm diameter clear zone around the 3 mm sample well. As for the experimental part: as §1, §2
Assay [9] relates to Acinetobacter anitratus (ATCC 17903). The settings on record: TCA precipitated culture supernatant, 100 x concentrated; 10 units = 1 mm diameter clear zone around the 3 mm sample well. As for the experimental part:
as §1, §2

Setting [10] is: TCA precipitated culture supernatant, 100 x concentrated.
The mark [11] stands for this setting: native culture supernatant of recombinant A. oryzae clone.

For “Marinasin 1B: Arenicola marina antimicrobial polypeptide, amino acids 1 to 49 of SEQ ID NO: 8, expressed in Aspergillus oryzae (MKFFLPIMIALAFAAVAMATADTEPVEPEEELSIMLPFVEDDLLEKPIP; listed as Arenicola marina)”, in assay [1], the “zone of inhibition, test strain J” value was determined as 28 units. Besides, the “zone of inhibition, test strain H” value in assay [2] came out at 25 units. The “zone of inhibition, test strain E” value stood at 30 units in [3] (setting [10]) and 9 units in assay [3] (setting [11]). In addition, the “zone of inhibition, test strain B” value in [4] (setting [10]) is 25 units; in [4] (setting [11]) it was 21 units. Moreover, in assay [5], the “zone of inhibition, test strain F” value amounted to 25 units. Further, the “zone of inhibition, test strain D” value amounted to 28 units in assay [6] (setting [10]) and 10 units in [6] (setting [11]). Besides, the “zone of inhibition, test strain A” value in assay [7] was 22 units. In addition, the “zone of inhibition, test strain C” value was determined as 22 units in assay [8] (setting [10]) and 10 units in assay [8] (setting [11]). In addition, in assay [9], the “zone of inhibition, test strain G” value is listed as 26 units.
For “Marinasin 2A: Arenicola marina antimicrobial polypeptide, amino acids 1 to 46 of SEQ ID NO: 12, expressed in Aspergillus oryzae (MNQITLLMLLVAVAVMATVTGQSLDDESDVENVSQPEQRGWCWQWT; listed as Arenicola marina)”, in assay [1], the “zone of inhibition, test strain J” value is 39 units. Besides, in [2], the “zone of inhibition, test strain H” value is given as 40 units. Moreover, the “zone of inhibition, test strain E” value in assay [3] (setting [10]) was found to be 41 units; in [3] (setting [11]) it was 14 units. The results for the “zone of inhibition, test strain B” value in assay [4] (setting [10]) and in assay [4] (setting [11]) were 35 units and 26 units, respectively. In assay [5], the “zone of inhibition, test strain F” value was 25 units. The “zone of inhibition, test strain D” value in assay [6] (setting [10]) was 38 units; in [6] (setting [11]), 16 units. For the same substance, in [7], the “zone of inhibition, test strain A” value turned out to be 34 units. Moreover, the “zone of inhibition, test strain C” value in [8] (setting [10]) is 35 units; in assay [8] (setting [11]), 12 units. Moreover, the “zone of inhibition, test strain G” value in assay [9] worked out at 39 units.
As for “Marinasin 4: Arenicola marina antimicrobial polypeptide, amino acids 1 to 45 of SEQ ID NO: 22, expressed in Aspergillus oryzae (MKPIILLMLLVAVVVMATVTAEPLDEESDVEIVSQPEQRIPCWTP; listed as Arenicola marina)”, in assay [1], the “zone of inhibition, test strain J” value is given as 0 units. Also, in assay [2], the “zone of inhibition, test strain H” value was 0 units. Also, the “zone of inhibition, test strain E” value was 68 units in [3] (setting [10]) and 43 units in assay [3] (setting [11]). The entries for the “zone of inhibition, test strain B” value in [4] (setting [10]) and in assay [4] (setting [11]) were 81 units and 60 units, respectively. For the same substance, the “zone of inhibition, test strain F” value in assay [5] came out at 0 units. The “zone of inhibition, test strain D” value in assay [6] (setting [10]) and in assay [6] (setting [11]) was 32 units in each case. The “zone of inhibition, test strain A” value in assay [7] worked out at 14 units. Further, the “zone of inhibition, test strain C” value worked out at 59 units in assay [8] (setting [10]) and 54 units in assay [8] (setting [11]). Moreover, in assay [9], the “zone of inhibition, test strain G” value is listed as 6 units.
For “Marinasin 5: Arenicola marina antimicrobial polypeptide, amino acids 1 to 49 of SEQ ID NO: 24, expressed in Aspergillus oryzae (MKFLLPLMVVMAFAAVAMATADTEPVEREEGVFIMLPFVEDDMLEKPIL; listed as Arenicola marina)”, in assay [1], the “zone of inhibition, test strain J” value is listed as 22 units. Also, the “zone of inhibition, test strain H” value in [2] was 26 units. In [3] (setting [10]), the “zone of inhibition, test strain E” value is 23 units. The “zone of inhibition, test strain B” value in assay [4] (setting [10]) is 13 units. Besides, the “zone of inhibition, test strain F” value in assay [5] is on record as 19 units. The “zone of inhibition, test strain D” value in assay [6] (setting [10]) is 25 units. For the same substance, the “zone of inhibition, test strain A” value in assay [7] is 22 units. Moreover, the “zone of inhibition, test strain C” value in [8] (setting [10]) stood at 24 units. Also, in assay [9], the “zone of inhibition, test strain G” value came to 26 units.
With “Marinasin 6: Arenicola marina antimicrobial polypeptide, amino acids 1 to 44 of SEQ ID NO: 26, expressed in Aspergillus oryzae (MTTLLLMFGVAIVVLATVAAVPLQDDDVLDPSGLVEGETRGRSC; listed as Arenicola marina)”, the “zone of inhibition, test strain E” value in [3] (setting [11]) is reported as 40 units. Further, in assay [6] (setting [11]), the “zone of inhibition, test strain D” value is 39 units. Moreover, the “zone of inhibition, test strain C” value in [8] (setting [11]) was 45 units.
